Where two headings read alike, the source gives them in different places.

Consider four compounds from patent US11311632B2, “Viral vectors for prophylaxis and therapy of hemoglobinopathies” (Cornell University, priority 2015, dated 2022).

Data set [1] has as its system CD34+-derived SCD erythroid cells. Kind of data set: Hemoglobin (HbF, HbS, HbA2) content by HPLC in differentiated CD34+-derived SCD erythroid cells. It is filed as cell-based, human. From the text: To obtain the data presented here, we used the lentiviral vector pCL-ZF-Ldb1, (FIG. 11, top vector map), which carries a zinc-finger protein that specifically binds the γ-globin promoters, fused to the self-association (SA) domain of Ldb1, as well as a green fluorescent protein under the control of the erythroid specific ankyrin promoter. […] Cell, 2014. 158(4): p. 849-60].
In particular, we analyzed the mRNA and protein content of erythroblasts derived from 10 SCD subjects. CD34+ cells isolated from peripheral blood mononuclear cells (PBMCs) were frozen and used for independent replicate experiments. Infection with pCL-ZF-Ldb1 was performed on pro-erythroblast within the first 10 days of the expansion phase.
A scheme of the experimental procedures is illustrated in FIG. 16. […] Exp Hematol, 2005. 33(12): p. […] J Clin Invest, 2008. 118(1): p. […] Nat Med, 2013. 19(3): p. 291-4]. Studies were performed on day 8 of differentiation phase, at the orthochromatophilic stage when high amounts of hemoglobin were accumulated.
(§1) CD34+ cells selection from blood samples was performed by immunomagnetic separation, using the CD34 microbeads kit (Miltenyi Biotec Inc., Auburn, Calif.). These cells were then expanded following a modified version of the protocol described by Leberbauer and colleagues. Cells were seeded in 5 mL of serum-free StemSpan with 50 μL of StemSpan CC-100 cytokine cocktail (both from Stemcell Technologies, Vancouver, BA, Canada), 2 U/mL Erytrhopoietin (Amgen, Thousand Oaks, Calif.), 10^-6 M dexamethasone (Sigma) and 1% penicillin streptomycin. CD34+ cultures were kept undifferentiated by refreshing the medium twice a week and density gradient centrifugation was used to remove both dead and spontaneously differentiating cells. At this stage cells were either frozen (with 50% characterized Hyclone FBS, 10% DMSO, Sigma, and 40% Iscove's Modified DMEM, Cellgro), or used for experiments. After 10 days in phase I, cells were transferred into phase II media containing α-modified essential medium supplemented with 30% fetal calf serum and 10^-5 M β-mercaptoethanol. Erythropoietin was added (5 U/mL) to stimulate erythroid differentiation.

For data set [2], the system named is SCD erythroblasts. Nature of the data set: Erythroid cell count / viability (benzidine+ cells) of treated SCD erythroblasts. The settings on record: same treatments and doses as HbF induction comparison. As to the method: as §1
Where [3] appears, read: SCD erythroid cells, summary in description.
Setting [4] is: day 8 of differentiation, same treatments and doses as net HbF increase.

On to `N[C@@H]1C[C@H]1c1ccccc1` (racemic) [tranyl-cypromine, tranylcypromine], for which, in data set [1], the “induction of HbF (qualitative summary)” value is “intermediate effect”, the “net HbF increase” value was 8.08%±6.28 and the “net HbS decrease” value is recorded as −6.93%±6.64.
In the case of `CCCC(=O)[O-].[Na+]` [butyrate, sodium butyrate], in data set [1], the “net HbF increase” value was 4.84%±5.03. Also, in data set [1] (setting [3]), the “induction of HbF (qualitative summary)” value is on record as “marginal HbF induction”. Also, in data set [1] (setting [4]), the “net HbS decrease” value was −4.90%±7.94. For the same compound, the “viability compared to untreated samples” value in data set [2] is “reduced viability”.
Turning to `NC(=O)NO` [hydroxyurea], the “induction of HbF (qualitative summary)” value in data set [1] (setting [3]) was “marginal HbF induction”. In data set [1] (setting [4]), the “net HbS decrease” value is −3.48%±4.68. For the same compound, in data set [2], the “viability compared to untreated samples” value is “reduced viability”.
Regarding `Nc1cccc2c1C(=O)N(C1CCC(=O)NC1=O)C2=O` (stereo not shown) [pomalidomide], the “net HbS decrease” value in data set [1] (192 h) was 11.61−%±9.27. The “net HbF increase” value in data set [1] (192 h, 30 µM) was 11.84%±9.02. Moreover, the “viability compared to untreated samples” value in data set [2] is recorded as “reduced viability”.
